# In patent US20090137664A1, “SAURURUS CERNUUS COMPOUNDS THAT INHIBIT CELLULAR RESPONSES TO HYPOXIA” (priority 2003, published 2009):
# How the values were obtained:
# OVCAR-3 = experiment: NCI in vitro cell line screen (SRB), Ovarian Cancer OVCAR-3; assay type: cell-based
# Procedure: (§1) For exemplary purposes, an embodiment of the present invention was tested for activity with respect to certain cancer cell lines. The following Tables show results from in vitro 60-cell line antitumor testing from the US National Cancer Institute Developmental Therapeutics Program (NCI-DTP) on compound 2. The testing was in connection with the NCI's In Vitro Cell Line Screening Project (IVCLSP). Detailed information regarding the experiments and their interpretation is available from the NCI.
# UO-31 = experiment: NCI in vitro cell line screen (SRB), Renal Cancer UO-31; assay type: cell-based
# Procedure: as §1
# DU-145 = experiment: NCI in vitro cell line screen (SRB), Prostate Cancer DU-145; assay type: cell-based
# Procedure: as §1
# SF-268 = experiment: NCI in vitro cell line screen (SRB), CNS Cancer SF-268; assay type: cell-based
# Procedure: as §1
# secreted VEGF protein = experiment: induction of secreted VEGF protein by 1,10-phenanthroline in T47D cells (ELISA); assay type: cell-based, human; conditions: T47D, 1,10-phenanthroline 10 μM, 16 hr
# Procedure: Cell plating and compound treatment is similar to those described earlier for hypoxic conditions. […] At the end of the incubation, the concentration of secreted VEGF protein in the conditioned media is determined by ELISA and the data normalized by the number of viable cells.
# HS 578T = experiment: NCI in vitro cell line screen (SRB), Breast Cancer HS 578T; assay type: cell-based
# Procedure: as §1
# MCF7 = experiment: NCI in vitro cell line screen (SRB), Breast Cancer MCF7; assay type: cell-based
# Procedure: as §1
# [1] = Homo sapiens, read-out: LC50 (the source's name)
compound,measurement,setting,value
"COc1ccc([C@@H](O)[C@@H](C)Oc2ccc([C@H]3O[C@H](c4ccc(O[C@H](C)[C@H](O)c5ccc6c(c5)OCO6)c(OC)c4)[C@H](C)[C@H]3C)cc2OC)cc1OC [Compound 2, manassantin B]",Mean Optical Densities,OVCAR-3; Log10 Concentration −6.0 Molar,0.616
same,Percent Growth,OVCAR-3; Log10 Concentration −6.0 Molar,33%
same,Mean Optical Densities,OVCAR-3; Log10 Concentration −7.0 Molar,0.722
same,Percent Growth,OVCAR-3; Log10 Concentration −7.0 Molar,117%
same,Mean Optical Densities,OVCAR-3; Log10 Concentration −8.0 Molar,0.679
same,Percent Growth,OVCAR-3; Log10 Concentration −8.0 Molar,83%
same,TGI,UO-31,>1.00E−4 Molar
same,GI50,UO-31; Homo sapiens,3.9 µM
same,CC50,UO-31; [1],> 100 µM
same,Mean Optical Densities,UO-31; Log10 Concentration −4.0 Molar,0.786
same,Percent Growth,UO-31; Log10 Concentration −4.0 Molar,33%
same,Mean Optical Densities,UO-31; Log10 Concentration −5.0 Molar,0.841
same,Percent Growth,UO-31; Log10 Concentration −5.0 Molar,39%
same,Mean Optical Densities,UO-31; Log10 Concentration −6.0 Molar,1.102
same,Percent Growth,UO-31; Log10 Concentration −6.0 Molar,66%
same,Mean Optical Densities,UO-31; Log10 Concentration −7.0 Molar,1.189
same,Percent Growth,UO-31; Log10 Concentration −7.0 Molar,75%
same,Mean Optical Densities,UO-31; Log10 Concentration −8.0 Molar,1.250
same,Percent Growth,UO-31; Log10 Concentration −8.0 Molar,81%
same,TGI,DU-145,>1.00E−4 Molar
same,GI50,DU-145; Homo sapiens,10.6 µM
same,CC50,DU-145; [1],> 100 µM
same,Mean Optical Densities,DU-145; Log10 Concentration −4.0 Molar,0.487
same,Percent Growth,DU-145; Log10 Concentration −4.0 Molar,28%
same,Mean Optical Densities,DU-145; Log10 Concentration −5.0 Molar,0.623
same,Percent Growth,DU-145; Log10 Concentration −5.0 Molar,51%
same,Mean Optical Densities,DU-145; Log10 Concentration −6.0 Molar,0.800
same,Percent Growth,DU-145; Log10 Concentration −6.0 Molar,81%
same,Mean Optical Densities,DU-145; Log10 Concentration −7.0 Molar,0.831
same,Percent Growth,DU-145; Log10 Concentration −7.0 Molar,86%
same,Mean Optical Densities,DU-145; Log10 Concentration −8.0 Molar,0.817
same,Percent Growth,DU-145; Log10 Concentration −8.0 Molar,83%
same,TGI,SF-268,>1.00E−4 Molar
same,GI50,SF-268; Homo sapiens,4.96 µM
same,CC50,SF-268; [1],> 100 µM
same,Mean Optical Densities,SF-268; Log10 Concentration −4.0 Molar,0.685
same,Percent Growth,SF-268; Log10 Concentration −4.0 Molar,27%
same,Mean Optical Densities,SF-268; Log10 Concentration −5.0 Molar,0.811
same,Percent Growth,SF-268; Log10 Concentration −5.0 Molar,40%
same,Mean Optical Densities,SF-268; Log10 Concentration −6.0 Molar,1.135
same,Percent Growth,SF-268; Log10 Concentration −6.0 Molar,73%
same,Mean Optical Densities,SF-268; Log10 Concentration −7.0 Molar,1.238
same,Percent Growth,SF-268; Log10 Concentration −7.0 Molar,83%
same,Mean Optical Densities,SF-268; Log10 Concentration −8.0 Molar,1.213
same,Percent Growth,SF-268; Log10 Concentration −8.0 Molar,81%
same,"effect on the induction of secreted VEGF protein by 1,10-phenanthroline",secreted VEGF protein,does not effect
same,TGI,HS 578T,>1.00E−4 Molar
same,GI50,HS 578T; Homo sapiens,10.4 µM
same,CC50,HS 578T; [1],> 100 µM
same,Mean Optical Densities,HS 578T; Log10 Concentration −4.0 Molar,0.834
same,Percent Growth,HS 578T; Log10 Concentration −4.0 Molar,17%
same,Mean Optical Densities,HS 578T; Log10 Concentration −5.0 Molar,1.018
same,Percent Growth,HS 578T; Log10 Concentration −5.0 Molar,51%
same,Mean Optical Densities,HS 578T; Log10 Concentration −6.0 Molar,1.188
same,Percent Growth,HS 578T; Log10 Concentration −6.0 Molar,82%
same,Mean Optical Densities,HS 578T; Log10 Concentration −7.0 Molar,1.267
same,Percent Growth,HS 578T; Log10 Concentration −7.0 Molar,96%
same,Mean Optical Densities,HS 578T; Log10 Concentration −8.0 Molar,1.222
same,Percent Growth,HS 578T; Log10 Concentration −8.0 Molar,88%
same,TGI,MCF7,9.51E−6 Molar
same,GI50,MCF7; Homo sapiens,0.36 µM
same,CC50,MCF7; [1],> 100 µM
same,Mean Optical Densities,MCF7; Log10 Concentration −4.0 Molar,0.191
same,Percent Growth,MCF7; Log10 Concentration −4.0 Molar,−40%
same,Mean Optical Densities,MCF7; Log10 Concentration −5.0 Molar,0.316
same,Percent Growth,MCF7; Log10 Concentration −5.0 Molar,−1%
same,Mean Optical Densities,MCF7; Log10 Concentration −6.0 Molar,0.758
same,Percent Growth,MCF7; Log10 Concentration −6.0 Molar,42%
same,Mean Optical Densities,MCF7; Log10 Concentration −7.0 Molar,0.937
same,Percent Growth,MCF7; Log10 Concentration −7.0 Molar,60%
same,Mean Optical Densities,MCF7; Log10 Concentration −8.0 Molar,0.959
same,Percent Growth,MCF7; Log10 Concentration −8.0 Molar,62%
